We go through 32 molecules from patent US7732475B2, “Histone deacetylase inhibitors” (Takeda San Diego, Inc., priority 2005, dated 2010).

Each structure is given as a SMILES string. Bounds are passed on as bounds.

The target in the assay is HDAC2 (Homo sapiens, UniProt Q92769). Put plainly: HDAC2 fluorescence inhibition assay (tBoc-Lys(Ac)-AMC).
HDAC2, sequence (Q92769 with tags, fused parts or gaps): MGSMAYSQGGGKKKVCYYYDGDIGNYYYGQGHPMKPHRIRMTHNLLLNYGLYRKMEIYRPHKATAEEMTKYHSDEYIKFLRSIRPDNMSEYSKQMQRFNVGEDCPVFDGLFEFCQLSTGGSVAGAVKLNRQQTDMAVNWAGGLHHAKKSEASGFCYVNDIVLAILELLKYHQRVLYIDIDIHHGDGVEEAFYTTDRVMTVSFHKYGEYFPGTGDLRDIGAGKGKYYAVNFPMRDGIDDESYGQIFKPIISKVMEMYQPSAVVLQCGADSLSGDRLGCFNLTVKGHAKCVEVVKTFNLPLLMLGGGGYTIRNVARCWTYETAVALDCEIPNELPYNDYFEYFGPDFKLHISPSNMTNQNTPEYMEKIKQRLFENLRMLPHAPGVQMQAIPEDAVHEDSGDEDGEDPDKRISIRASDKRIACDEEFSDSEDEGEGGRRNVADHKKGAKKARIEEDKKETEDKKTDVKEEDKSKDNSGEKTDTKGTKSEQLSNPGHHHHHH
A word on the IC50: it is the concentration needed to halve the response being measured. Read a high IC50 as lower potency. `Nc1ccccc1NC(=O)c1ccc(Cn2ncc3cccc(F)c32)cc1` [Example 46, N-(2-aminophenyl)-4-((7-fluoro-1H-indazol-1-yl)methyl)benzamide] showed an IC50 of 50 to 100 nM.

Turning to `Nc1ccccc1NC(=O)c1ccc(Cn2cc3cccc(F)c3n2)cc1` [Example 47, N-(2-aminophenyl)-4-((7-fluoro-2H-indazol-2-yl)methyl)benzamide], the IC50 is 50 to 100 nM.

On to `Nc1ccccc1NC(=O)c1ccc(Cn2ncc3c(F)cccc32)cc1` [Example 48, N-(2-aminophenyl)-4-((4-fluoro-1H-indazol-1-yl)methyl)benzamide], for which the IC50 was in the range of 50 to 100 nM.

As to `Nc1ccccc1NC(=O)c1ccc(Cn2cc3c(F)cccc3n2)cc1` [Example 49, N-(2-aminophenyl)-4-((4-fluoro-2H-indazol-2-yl)methyl)benzamide], the IC50 was at most 50 nM.

As to `C[C@H](c1ccc(C(=O)Nc2ccccc2N)cc1)n1cc2ccccc2n1` [Example 50, (R)-4-(1-(2H-indazol-2-yl)ethyl)-N-(2-aminophenyl)benzamide], the IC50 lay in the range of 50 to 100 nM.

On to `C[C@@H](c1ccc(C(=O)Nc2ccccc2N)cc1)n1cc2ccccc2n1` [Example 51, (S)-4-(1-(2H-indazol-2-yl)ethyl)-N-(2-aminophenyl)benzamide], for which the IC50 was in the range of 50 to 100 nM.

The molecule `Cc1nn(Cc2ccc(C(=O)Nc3ccccc3N)cc2)c2c(F)cccc12` [Example 52, N-(2-aminophenyl)-4-((7-fluoro-3-methyl-1H-indazol-1-yl)methyl)benzamide] registered an IC50 of 50 to 100 nM.

As to `Cc1c2cccc(F)c2nn1Cc1ccc(C(=O)Nc2ccccc2N)cc1` [Example 53, N-(2-aminophenyl)-4-((7-fluoro-3-methyl-2H-indazol-2-yl)methyl)benzamide], the IC50 was 50 to 100 nM.

As for `Cc1nn(Cc2ccc(C(=O)Nc3ccccc3N)cc2)c2cccc(F)c12` [Example 54, N-(2-aminophenyl)-4-((4-fluoro-3-methyl-1H-indazol-1-yl)methyl)benzamide], the IC50 was in the range of 100 to 500 nM.

For the molecule `Cc1c2c(F)cccc2nn1Cc1ccc(C(=O)Nc2ccccc2N)cc1` [Example 55, N-(2-aminophenyl)-4-((4-fluoro-3-methyl-2H-indazol-2-yl)methyl)benzamide], the IC50 was in the range of 50 to 100 nM.

Consider `Cc1nn(Cc2ccc(C(=O)Nc3ccccc3N)cc2)c2cc(F)c(F)cc12` [Example 56, N-(2-aminophenyl)-4-((5,6-difluoro-3-methyl-1H-indazol-1-yl)methyl)benzamide], for which the IC50 is 50 to 100 nM.

`Cc1c2cc(F)c(F)cc2nn1Cc1ccc(C(=O)Nc2ccccc2N)cc1` [Example 57, N-(2-aminophenyl)-4-((5,6-difluoro-3-methyl-2H-indazol-2-yl)methyl)benzamide] showed an IC50 of 50 to 100 nM.

On to `COc1ccc2cnn(Cc3ccc(C(=O)Nc4ccccc4N)cc3)c2c1` [Example 58, N-(2-aminophenyl)-4-((6-methoxy-1H-indazol-1-yl)methyl)benzamide], for which the IC50 lay in the range of 50 to 100 nM.

With `COc1ccc2cn(Cc3ccc(C(=O)Nc4ccccc4N)cc3)nc2c1` [Example 59, N-(2-aminophenyl)-4-((6-methoxy-2H-indazol-2-yl)methyl)benzamide], the IC50 is at most 50 nM.

`Nc1ccccc1NC(=O)c1ccc(Cn2nc(Cl)c3ccccc32)cc1` [Example 60, N-(2-aminophenyl)-4-((3-chloro-1H-indazol-1-yl)methyl)benzamide]: the IC50 was 50 to 100 nM.

Consider `Nc1ccccc1NC(=O)c1ccc(Cn2nc3ccccc3c2Cl)cc1` [Example 61, N-(2-aminophenyl)-4-((3-chloro-2H-indazol-2-yl)methyl)benzamide], for which the IC50 was at most 50 nM.

Consider `Nc1ccccc1NC(=O)c1ccc(Cn2nc3ccc(C(F)(F)F)cc3c2N)cc1` [Example 62, 4-((3-amino-5-(trifluoromethyl)-2H-indazol-2-yl)methyl)-N-(2-aminophenyl)benzamide], for which the IC50 was at most 50 nM.

Regarding `Nc1ccccc1NC(=O)c1ccc(Cn2nc(N)c3cc(C(F)(F)F)ccc32)cc1` [Example 63, 4-((3-amino-5-(trifluoromethyl)-1H-indazol-1-yl)methyl)-N-(2-aminophenyl)benzamide], the IC50 lay in the range of 50 to 100 nM.

Molecule `Nc1ccccc1NC(=O)c1ccc(Cn2[nH]c(=O)c3ccccc32)cc1` [Example 64, N-(2-aminophenyl)-4-((3-oxo-2,3-dihydro-1H-indazol-1-yl)methyl)benzamide] gave an IC50 of 50 to 100 nM.

For `Nc1ccccc1NC(=O)c1ccc(Cn2[nH]c3ccccc3c2=O)cc1` [Example 65, N-(2-aminophenyl)-4-((3-oxo-1H-indazol-2(3H)-yl)methyl)benzamide], the IC50 fell in the range of 100 to 500 nM.

The molecule `COc1ccc2c(C)nn(Cc3ccc(C(=O)Nc4ccccc4N)cc3)c2c1` [Example 66, N-(2-aminophenyl)-4-((6-methoxy-3-methyl-1H-indazol-1-yl)methyl)benzamide] yielded an IC50 of at most 50 nM.

`COc1ccc2c(C)n(Cc3ccc(C(=O)Nc4ccccc4N)cc3)nc2c1` [Example 67, N-(2-aminophenyl)-4-((6-methoxy-3-methyl-2H-indazol-2-yl)methyl)benzamide] displayed an IC50 of at most 50 nM.

As to `Cc1nn(Cc2ccc(C(=O)Nc3ccccc3N)cc2)c2cc(F)ccc12` [Example 68, N-(2-aminophenyl)-4-((6-fluoro-3-methyl-1H-indazol-1-yl)methyl)benzamide], the concentration for half-maximal inhibition (IC50) lay in the range of 50 to 100 nM.

Molecule `Cc1c2ccc(F)cc2nn1Cc1ccc(C(=O)Nc2ccccc2N)cc1` [Example 69, N-(2-aminophenyl)-4-((6-fluoro-3-methyl-2H-indazol-2-yl)methyl)benzamide] displayed an IC50 of 50 to 100 nM.

`Cc1nn(Cc2ccc(C(=O)Nc3ccccc3N)cc2)c2ccc(F)cc12` [Example 70, N-(2-aminophenyl)-4-((5-fluoro-3-methyl-1H-indazol-1-yl)methyl)benzamide] came in with an IC50 of 100 to 500 nM.

Molecule `Cc1c2cc(F)ccc2nn1Cc1ccc(C(=O)Nc2ccccc2N)cc1` [Example 71, N-(2-aminophenyl)-4-((5-fluoro-3-methyl-2H-indazol-2-yl)methyl)benzamide] returned an IC50 of 50 to 100 nM.

As to `CCc1nn(Cc2ccc(C(=O)Nc3ccccc3N)cc2)c2ccccc12` [Example 72, N-(2-aminophenyl)-4-((3-ethyl-1H-indazol-1-yl)methyl)benzamide], the IC50 fell in the range of 50 to 100 nM.

For `CCc1c2ccccc2nn1Cc1ccc(C(=O)Nc2ccccc2N)cc1` [Example 73, N-(2-aminophenyl)-4-((3-ethyl-2H-indazol-2-yl)methyl)benzamide], the IC50 was 100 to 500 nM.

Turning to `Cc1nn(Cc2ccc(C(=O)Nc3ccccc3N)cc2)c2cc(O)ccc12` [Example 74, N-(2-aminophenyl)-4-((6-hydroxy-3-methyl-1H-indazol-1-yl)methyl)benzamide], the IC50 is at most 50 nM.

For the molecule `Cc1c2ccc(O)cc2nn1Cc1ccc(C(=O)Nc2ccccc2N)cc1` [Example 75, N-(2-aminophenyl)-4-((6-hydroxy-3-methyl-2H-indazol-2-yl)methyl)benzamide], the IC50 is 100 to 500 nM.

The molecule `Nc1ccccc1NC(=O)c1ccc(Cn2nc(-c3ccccc3)c3ccccc32)cc1` [Example 76, N-(2-aminophenyl)-4-((3-phenyl-1H-indazol-1-yl)methyl)benzamide] displayed an IC50 of 50 to 100 nM.

`Nc1ccccc1NC(=O)c1ccc(Cn2nc3ccccc3c2-c2ccccc2)cc1` [Example 77, N-(2-aminophenyl)-4-((3-phenyl-2H-indazol-2-yl)methyl)benzamide] showed an IC50 of 50 to 100 nM.
